Reference: ChEMBL document CHEMBL4476871, “SULFAMIDE AND SULFAMATE INHIBITORS OF hHint1” (2018)
The source made the active and inactive calls. The calls are words filed in the database; no cut-off is given here.

Key:
[1] = biological target: Adenosine 5'-monophosphoramidase HINT1 (Homo sapiens) (UniProt P49773); experiment: Inhibition of human N-terminal His6-tagged Hint1 expressed in Escherichia coli Rosetta 2 pLysS cells by fluorescence assay
Mus musculus [2] = experiment: Analgesic activity in ICR mouse model of spared nerve injury assessed as reduction in mechanical hypersensitivity at 1 nmol administered intrathecally prior to spared nerve injury by Von Frey test; assay type: functional, organism-based
Mus musculus [3] = experiment: Analgesic activity in ICR mouse model of spared nerve injury assessed as reduction in mechanical hypersensitivity at 1 nmol administered intrathecally 7 days post spared nerve injury measured after 4 hrs by Von Frey test; assay type: functional, organism-based
Mus musculus [4] = experiment: Analgesic activity in ICR mouse model of spared nerve injury assessed as reduction in mechanical hypersensitivity at 1 nmol administered intrathecally 7 days post spared nerve injury by Von Frey test; assay type: functional, organism-based

Chain of Adenosine 5'-monophosphoramidase HINT1 (Homo sapiens) (P49773 whole entry): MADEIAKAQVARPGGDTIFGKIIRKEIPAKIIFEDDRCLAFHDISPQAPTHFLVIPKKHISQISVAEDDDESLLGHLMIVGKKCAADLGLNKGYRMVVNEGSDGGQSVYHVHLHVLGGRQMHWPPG

inhibition [1] | SMILES | Activity (Mus musculus [2]) | Activity (Mus musculus [3]) | Activity (Mus musculus [4])
Dose-dependent effect | Nc1ncnc2c1ncn2[C@@H]1O[C@H](CNS(=O)(=O)NC(=O)CCCC[C@@H]2SC[C@@H]3NC(=O)N[C@@H]32)[C@@H](O)[C@H]1O |  |  | 
 | O=C(CCc1c[nH]c2ccccc12)NS(=O)(=O)OC[C@H]1O[C@@H](n2cnc3c2ncn2ccnc32)[C@@H](O)C1O (stereo partly specified) | inactive | Active | 
Dose-dependent effect | Nc1nc2c(ncn2[C@@H]2O[C@H](COC(=O)NCCc3c[nH]c4ccccc34)[C@@H](O)[C@H]2O)c(=O)[nH]1 | Active |  | Active
